What was measured:
[1] = in animals; 'purportedly'; cited from earlier work
[2] = test system: pruritic skin lesions of atopic dermatitis; assay: Cream applied to pruritic skin lesions by patients with atopic dermatitis; format: in vivo, human; details: cream 1.0% by weight, applied two to four times daily
Description: A cream containing cis doxepin isomer 1.0% by weight is applied two to four times daily to pruritic skin lesions by patients with atopic dermatitis.

[3] = Applicant's evaluation of sedation with the cis isomer at therapeutically effective dosages; format: in vivo
Description: In an attempt to discover a compound that might have similar effectiveness to doxepin hydrochloride U.S.P. but less associated sedation, the applicant has evaluated the cis isomer, which as mentioned above constitutes less than 18.1 % of doxepin hydrochloride. […] The invention includes pharmaceutical compositions of cis doxepin suitable for administration to patients with affective disorders, painful disorders, or allergic disorders.

Q: For `CN(C)CC/C=C1/c2ccccc2COc2ccccc21.Cl` [cis doxepin hydrochloride], which “potency compared with doxepin hydrochloride U.S.P.” value [1] is on record?
A: more potent

Q: And the relief of itching [2]?
A: provides for relief of itching

Q: And the “resolution of the skin lesions” value [2]?
A: more prompt resolution of the skin lesions

Q: And the “sedation compared with prior art doxepin creams in which the trans isomer is predominant” value [2]?
A: without producing the incidence or severity of sedation

Q: And the “sedation compared with doxepin hydrochloride U.S.P.” value [3]?
A: produces less sedation
